A short description of series [1]: Stability assessment on storage, XRPD patterns collected after storage. It counts as physicochemical. As to conditions: maleate. The method, then:
Form B in the present invention were stored under 5° C., 25° C./60% relative humidity and 40° C./75% RH for 90 days. XRPD patterns were collected after storage.
Form C of the present invention was stored under 5° C., 25° C./60% RH and 40° C./75% relative humidity for 330 days. XRPD patterns were collected after storage.

A short description of series [2]: Solubility comparison in pH 1.8 SGF and high purity water, saturated solutions determined by HPLC. The class given is physicochemical. As to conditions: for Solubility: maleate; for Solubility in comparison to maleate Form II in CN101918390B: pH 1.8 SGF and high purity water, after 1, 4 and 24 hours; for solubility at 1 h / solubility at 4 h / solubility at 24 h: thermodynamic from solid. How it is done:
Maleate crystalline Form A, Form B of the present invention and maleate Form II in CN101918390B were added in pH 1.8 SGF (simulated gastric fluid), and in high purity water to obtain suspensions. Concentrations in the saturation solutions were determined after 1 hour, 4 hours and 24 hours by HPLC.

Series [3] can be described thus: Hygroscopicity by dynamic vapor sorption (DVS). It counts as physicochemical. As to conditions: DVS at 25° C., 80% RH; maleate. How it is done: Hygroscopicity of 10 mg of Form C of the present invention was tested using dynamic vapor sorption (DVS) at 25° C. […].
About hygroscopicity characterization description and definition of hygroscopicity (Chinese Pharmacopoeia 2010 edition appendix XIXJ Drug hygroscopic test guidelines, test at 25° C.+/−1° C., 80% Relative Humidity) • deliquescent: sufficient water is absorbed to form a liquid; • very hygroscopic: increase in mass is equal to or greater than 15 percent; • hygroscopic: increase in mass is less than 15 percent and equal to or greater than 2 percent; • slightly hygroscopic: increase in mass is less than 2 percent and equal to or greater than 0.2 percent. • no or almost no hygroscopic: increase in mass is less than 0.2%

Series [4] in a line: Stability comparison: 1:1 mixed suspension of Form C and Form II stirred in solvent, solid tested by XRPD. As to conditions: nitromethane, 24 hours, Form C versus Form II. It counts as physicochemical. The method, then:
10.0 mg of maleate crystalline Form C and maleate crystalline Form II in CN101918390B were mixed at a ratio of 1:1 and added into 1.0 mL of solvent to obtain a suspension. The suspension was magnetically stirred at 500 rpm at 25° C. for 24 hours, and centrifuged to give a solid which was tested by XRPD.

For series [5] the following is noted: as disclosed in CN101918390B; cited from earlier work.

Each structure is given as a SMILES string. Converted amounts (≈) assume the structure as drawn. “Also recorded” adds a separate entry of the source. Structures can show the parent of a compound that is named as a salt. A value given as a limit tells only on which side of the number the result lay.

On to `CCOc1cc2ncc(C#N)c(Nc3ccc(OCc4ccccn4)c(Cl)c3)c2cc1NC(=O)/C=C/CN(C)C` [Form B, (2E)-N-[4-[[3-chloro-4-[(pyridin-2-yl)methoxy]phenyl]amino]-3-cyano-7-ethoxyquinolin-6-yl]-4-(dimethylamino)but-2-enamide maleate], for which the “Form Change” value in series [1] (5° C., 90 days) is recorded as “remains unchanged; also recorded: Form B doesn't change”; in series [1] (25° C./60% RH, 90 days) it was “remains unchanged; also recorded: Form B doesn't change”; in series [1] (40° C./75% RH, 90 days), “remains unchanged; also recorded: Form B doesn't change”. The Solubility is over 5400 µg/mL in series [2] (H2O (high purity water), 1 h); over 5400 µg/mL in series [2] (H2O (high purity water), 4 h); over 5400 µg/mL in series [2] (H2O (high purity water), 24 h); over 6700 µg/mL in series [2] (pH 1.8 SGF, 1 h); over 6700 µg/mL in series [2] (pH 1.8 SGF, 4 h); over 6700 µg/mL in series [2] (pH 1.8 SGF, 24 h). Also, the “Solubility in comparison to maleate Form II in CN101918390B” value in series [2] was “higher solubility”.

As to `CCOc1cc2ncc(C#N)c(Nc3ccc(OCc4ccccn4)c(Cl)c3)c2cc1NC(=O)/C=C/CN(C)C` [Form C, (2E)-N-[4-[[3-chloro-4-[(pyridin-2-yl)methoxy]phenyl]amino]-3-cyano-7-ethoxyquinolin-6-yl]-4-(dimethylamino)but-2-enamide maleate], the “Form Change” value in series [1] (5° C., 330 days) is “remains unchanged; also recorded: Form C doesn't change”; in series [1] (25° C./60% RH, 330 days) it was “remains unchanged; also recorded: Form C doesn't change”; in series [1] (40° C./75% RH, 330 days), “remains unchanged; also recorded: Form C doesn't change”. For the same compound, in series [3], the “weight increment under 80% Relative Humidity” value worked out at 1.01%. Besides, the “Stability comparison (form conversion in mixed suspension)” value in series [4] (maleate) is listed as “more stable than maleate crystalline Form II”.

As to `CCOc1cc2ncc(C#N)c(Nc3ccc(OCc4ccccn4)c(Cl)c3)c2cc1NC(=O)/C=C/CN(C)C` [Form I], the “Form conversion by absorbing moisture in the air” value in series [5] is “can easily convert to Form II”.

As to `CCOc1cc2ncc(C#N)c(Nc3ccc(OCc4ccccn4)c(Cl)c3)c2cc1NC(=O)/C=C/CN(C)C` [Form II, reference compound], in series [4], the “Stability comparison (form conversion in mixed suspension)” value is on record as “transferred to crystalline Form C”. In addition, the solubility at 1 h in series [2] (simulated gastric fluid (SGF), simulated gastric fluid, pH 1.8 SGF, 1 h) is 3300 µg/mL (≈ 5.92 mM); in series [2] (H2O (high purity water), 1 h), 1000 µg/mL (≈ 1.8 mM). The solubility at 4 h is 3200 µg/mL (≈ 5.74 mM) in series [2] (simulated gastric fluid (SGF), simulated gastric fluid, pH 1.8 SGF, 4 h) and 940 µg/mL (≈ 1.69 mM) in series [2] (H2O (high purity water), 4 h). Further, the solubility at 24 h in series [2] (simulated gastric fluid (SGF), simulated gastric fluid, pH 1.8 SGF, 24 h) is 3100 µg/mL (≈ 5.56 mM); in series [2] (H2O (high purity water), 24 h), 940 µg/mL (≈ 1.69 mM).

As for `CCOc1cc2ncc(C#N)c(Nc3ccc(OCc4ccccn4)c(Cl)c3)c2cc1NC(=O)/C=C/CN(C)C` [Form A, (2E)-N-[4-[[3-chloro-4-[(pyridin-2-yl)methoxy]phenyl]amino]-3-cyano-7-ethoxyquinolin-6-yl]-4-(dimethylamino)but-2-enamide maleate], the solubility at 1 h is over 8400 µg/mL in series [2] (pH 1.8, simulated gastric fluid, pH 1.8 SGF, 1 h) and over 3900 µg/mL in series [2] (water, H2O (high purity water), 1 h). Further, the solubility at 4 h in series [2] (pH 1.8, simulated gastric fluid, pH 1.8 SGF, 4 h) is over 8400 µg/mL; in series [2] (water, H2O (high purity water), 4 h) it was over 3900 µg/mL. The solubility at 24 h in series [2] (pH 1.8, simulated gastric fluid, pH 1.8 SGF, 24 h) was over 8400 µg/mL; in series [2] (water, H2O (high purity water), 24 h) it was over 3900 µg/mL. The “Solubility in comparison to maleate Form II in CN101918390B” value in series [2] was “higher solubility”.

In general, Solubility refers to the dissolved amount per volume that the medium holds. The term solubility denotes the dissolved amount per volume that the medium holds.

Values taken from patent US10246437B2, “Crystal form of neratinib maleate and preparation method therefor” (CRYSTAL PHARMATECH CO., LTD, priority 2015, dated 2019).
